Results on 2 molecules are retold here after patent US20260174724A1, “COMPOSITION FOR PREVENTING AND/OR IMPROVING BRAIN DYSFUNCTION” (THE INSTITUTE OF BIOACTIVE PEPTIDES, priority 2024, published 2026).

For data set [1] the following is noted: simulated gi fluid, 4 h, 1 mg/mL.
Protocol: • Solutions A-D and A1-D1 were prepared according to the following components and concentrations, with a volume of 10 mL each. The mixed solution was placed in a water bath at 37° C., and the content of the remaining DHM was determined by HPLC at different time intervals. • Solution A: SIF+DHM (1 mg/mL); • Solution B: SIF+DHM (1 mg/mL)+taurine (0.3 mg/mL) • Solution C: SIF+DHM (1 mg/mL)+L-theanine (0.4 mg/mL); • Solution D: SIF+DHM (1 mg/mL)+taurine (0.1 mg/mL)+L-theanine (0.1 mg/mL) • Solution A1: SIF+DHM (1 mg/mL)+Fe^3+ (50 μmol/L); • Solution B1: SIF+DHM (1 mg/mL)+taurine (0.3 mg/mL)+Fe^3+ (50 μmol/L); • Solution C1: SIF+DHM (1 mg/mL)+L-theanine (0.4 mg/mL)+Fe^3+ (50 μmol/L); • Solution D1: SIF+DHM (1 mg/mL)+taurine (0.1 mg/mL)+L-theanine (0.1 mg/mL)+Fe^3+ (50 μmol/L).
Data set [2] in a line: Bioavailability experiment: DHM concentration in plasma after gavage, LC-MS/MS. As to conditions: male SD rats, DHM 100 mg/kg. The format is in vivo. The method, then: Experimental subject grouping: 24 male SD rats, weighing between 200-220 g, were randomly divided into four groups.
• Group A (control group): DHM was administered alone at a dose of 100 mg/kg. • Group B: DHM (100 mg/kg) was co-administered with L-theanine (10 mg/kg). • Group C: DHM (100 mg/kg) was co-administered with taurine (10 mg/kg). • Group D: DHM (100 mg/kg), L-theanine (10 mg/kg), and taurine (10 mg/kg) were co-administered.
The drug was mixed with 3 mL of 0.5% CMC-Na solution and administered by gavage.
At 0.1, 0.5, 1, 1.5, 2, 2.5, 3, 4, 6, 8, and 12 h after administration, 200 μL of blood samples were collected through the tail vein and placed in heparinized EP tubes.
The blood samples were centrifuged at 5000 rpm for 15 min at 4° C., and plasma was collected and stored at −20° C.
Before analysis, 30 μL of plasma sample was taken, 30 μL of internal standard (rutin) solution and 140 μL of 1% formic acid-acetonitrile solution were added, vortex oscillated for 1 min, centrifuged at 12000 rpm for 5 min, and 150 μL of supernatant was taken for LC-MS/MS analysis. Analysis purpose:
The concentration of DHM in plasma was determined at different time points to evaluate the effect of the composition on the bioavailability of DHM.

Data set [3] concerns intracerebral hemorrhage (ICH) model of C57BL/6N mice. Kind of data set: Cerebral hematoma experiment: collagenase-induced ICH model, hematoma volume by ImageJ. The format is in vivo. As to conditions: Day 1 after modeling; gavage 7 days before collagenase; FIG. 3. From the text:
This experiment aims to evaluate the effect of different compositions on the hematoma volume in the intracerebral hemorrhage (ICH) model of C57BL/6N mice. A total of 72 male C57BL/6N mice, aged 8-10 weeks, were randomly divided into 6 groups and treated with gavage for 7 days. Subsequently, except for the sham operation group (CON), the remaining groups were induced the ICH model by collagenase method. […]
On the 1st and 3rd day after modeling, 6 mice were randomly selected from each group for decapitation and brain sampling. The brain tissue was cut into slices on ice, and the hematoma volume was calculated using ImageJ software.

`O=C1c2c(O)cc(O)cc2O[C@H](c2cc(O)c(O)c(O)c2)[C@H]1O` [DHM, dihydromyricetin]: the “remaining amount of DHM” value in data set [1] is reported as “below 50%”. Besides, the CL in data set [2] was found to be 517 ± 62.4 L/h/kg. Moreover, in data set [2] (rat, po), the AUC(0-inf) (in general, total exposure, with the tail of the curve extrapolated) is 194 ng·h/mL; the AUC(0-t) (in general, the area under the concentration-time curve up to a stated or last time point) was 172 ng·h/mL; the Cmax (usually the maximum level reached in the sampled fluid or tissue) came out at 118 ± 13.7 ng/mL; the Tmax (as a rule, the time at which the peak concentration occurs) worked out at 0.83 ± 1.12 h. In data set [2] (rat, po), the half-life – broadly, the time in which the quantity being followed falls by half – was 1.91 ± 0.67 h.

On to `O=C1c2c(O)cc(O)cc2O[C@H](c2cc(O)c(O)c(O)c2)[C@H]1O` [G1 group, dihydromyricetin], for which the “hematoma volume compared with the MOD group” value in data set [3] is on record as “decreased”.
